Values of other authors as cited in US8097423B2, “MN/CA IX and breast cancer therapy” (Institute of Virology, priority 2008, dated 2012).

Experiments:
[1] = system: T2-4 N0-1 breast cancer; conditions: breast cancer patients, primary systemic treatment, four cycles before surgery; no significant difference between arms
[2] = weak basic drug
[3] = Phase I and II clinical trials

COc1cccc2c1C(=O)c1c(O)c3c(c(O)c1C2=O)C[C@@](O)(C(=O)CO)C[C@@H]3O[C@H]1C[C@H](N)[C@@H](O)[C@H](C)O1 [epirubicin]
treatment responses [1]: 76%

CC/C(=C(\c1ccccc1)c1ccc(OCCN(C)C)cc1)c1ccccc1 [Tamoxifen, tamoxifen]
pKa [2]: 8.8

Rencarex®: an MN-specific drug
tolerability / drug-related side effects [3]: well-tolerated, with no serious drug-related side effects
